In brackets after ≈: the same amount, converted by molar mass. Read-outs that look alike come from different tables or passages of the source.

Assay in all cases: MIC determination by agar dilution (Mueller Hinton Agar)
Type in all cases: cell-based
In general terms: In agar dilution, organisms are placed on agar that contains the substance at set levels.

In one assay the test system is Streptococcus pneumoniae. The conditions noted are these: Culture Number 41, 35° C., 20 hours, read-out: Minimum Inhibitory Concentration. The method, then: (§1) The compounds of this invention and their respective pharmaceutically acceptable salts have antibiotic activity against a variety of gram-negative bacteria including Escherichia coli, Klebsiella pneumoniae and Pseudomonas aeruginosa. The compounds are useful for treating bacterial infections in animals, including and most preferably humans. Compounds of the invention are tested for in vitro antimicrobial activity using standard testing procedures such as the determination of minimum inhibitory concentration (MIC) by methods described in "Methods for Dilution Antimicrobial Susceptibility Tests for Bacteria That Grow Aerobically" (M7-A) Published December 1985 by the National Committee for Clinical Laboratory standards, 771 East Lancaster Avenue, Villanova, Pa., 19084. Briefly, MIC values are determined in unsupplemented Mueller Hinton Agar (MHA). The compounds tested are diluted serially into molten MHA at 47° C. The agar is poured into petri dishes and allowed to harden. The various bacteria used for testing are grown overnight on MHA at 35° C. and transferred to Tryptiease Soy Broth (TSB) until a turbidity of 0.5 McFarland standard is obtained. The bacteria are diluted one to twenty in TSB and inoculated on the plates (1 μl using a Steers replicator). […] The MIC test results of four typical compounds of this invention.

The subject of the next assay is Pseudomonas aeruginosa. The conditions noted are these: 20 h, read-out: Minimum Inhibitory Concentration. The method, then:
as §1

Another assay has as its system Klebsiella oxytoca. The conditions noted are these: 20 h, read-out: Minimum Inhibitory Concentration. The method, then:
as §1

Another assay relates to Staphylococcus epidermis. The conditions noted are these: Culture Number 30031, 35° C., 20 hours, read-out: Minimum Inhibitory Concentration. The method, then:
as §1

A further assay concerns Streptococcus faecalis. To be noted: Enterococcus faecalis, 35° C., 20 hours, read-out: Minimum Inhibitory Concentration. The method, then:
as §1

In the next assay the test system is Proteus vulgaris. The conditions noted are these: Culture Number 9679, 35° C., 20 hours, read-out: Minimum Inhibitory Concentration. The method, then: as §1
The subject of a further assay is Escherichia coli. The conditions noted are these: 20 h, read-out: Minimum Inhibitory Concentration. The method, then:
as §1

In the next assay the test system is Enterobacter cloacae. The conditions noted are these: 20 h, read-out: Minimum Inhibitory Concentration. The method, then:
as §1

A further assay concerns Staphylococcus aureus. The conditions noted are these: 35° C., 20 hours; for MIC: Staphylococcus aureus, read-out: Minimum Inhibitory Concentration. The method, then:
as §1

Another assay concerns Streptococcus pyogenes. The conditions noted are these: Culture Number 152, 35° C., 20 hours, read-out: Minimum Inhibitory Concentration. The method, then:
as §1

The next assay has as its system Klebsiella pneumoniae. The conditions noted are these: Culture Number 58, 35° C., 20 hours, read-out: Minimum Inhibitory Concentration. The method, then: as §1
The test system of a further assay is Citrobacter freundii. To be noted: Culture Number 3507, 35° C., 20 hours, read-out: Minimum Inhibitory Concentration. The method, then: as §1
In a further assay the test system is Serratia marcescens. To be noted: Culture Number 6888, 35° C., 20 hours, read-out: Minimum Inhibitory Concentration. The method, then:
as §1

The subject of a further assay is Acinetobacter sp. To be noted: Culture Number 30278, 35° C., 20 hours, read-out: Minimum Inhibitory Concentration. The method, then: as §1
Assay [1] has as its system Acinetobacter calcoaceticus. The conditions noted are these: Culture Number 12170, 35° C., 20 hours, read-out: Minimum Inhibitory Concentration. The method, then: as §1

`CC(C)(O/N=C(\C(=O)N[C@H]1CN(C(=O)NS(=O)(=O)N[C@H]2CN(C(=O)c3cc(=O)c(O)c[nH]3)NC2=O)C1=O)c1csc(N)n1)C(=O)O` [60(b), 3(S)-3-[2-(2-Amino-4-thiazoyl)-Z-(2)-(carboxyisopropyloxyimino)acetamido]-1-[(3-hydroxy-4-pyridon-6-yl)-1-carbonyl-pyrazolidinone-4-(S)-amino]-sulfonyl-amino-carbonyl-2-azetidinone]: the MIC in the assay with Streptococcus pneumoniae is above 64 µg/mL; in the assay with Pseudomonas aeruginosa (Culture Number 231, 35° C.) it was 0.25 µg/mL (≈ 0.365 µM); with Pseudomonas aeruginosa (Culture Number 9191, 35° C.), 0.25 µg/mL (≈ 0.365 µM); in the assay on Klebsiella oxytoca (Culture Number 9383, 35° C.), 0.125 µg/mL (≈ 0.183 µM); in the assay on Klebsiella oxytoca (Culture Number 9384, 35° C.), 0.06 µg/mL (≈ 0.0876 µM); in the assay on Staphylococcus epidermis it was above 64 µg/mL. Further, the MIC in the assay on Streptococcus faecalis (Culture Number 694) was above 64 µg/mL; with Proteus vulgaris, 0.06 µg/mL (≈ 0.0876 µM); in the assay with Escherichia coli (Culture Number 9379, 35° C.), below 0.008 µg/mL; in the assay with Escherichia coli (Culture Number 9380, 35° C.) it was below 0.008 µg/mL; in the assay on Escherichia coli (Culture Number 9451, 35° C.), below 0.008 µg/mL; with Enterobacter cloacae (Culture Number 9381, 35° C.), 8 µg/mL (≈ 11.7 µM). Besides, the MIC in the assay with Enterobacter cloacae (Culture Number 9382, 35° C.) was 1 µg/mL (≈ 1.46 µM); in the assay on Staphylococcus aureus (Culture Number 9218) it was above 64 µg/mL; with Streptococcus pyogenes, 64 µg/mL (≈ 93.5 µM); with Klebsiella pneumoniae, 0.5 µg/mL (≈ 0.73 µM); in the assay on Citrobacter freundii, 0.03 µg/mL (≈ 0.0438 µM); in the assay on Serratia marcescens, 0.03 µg/mL (≈ 0.0438 µM). In addition, the “Minimum Inhibitory Concentration” value in the assay on Staphylococcus aureus (Culture Number 3665), in the assay on Staphylococcus aureus (Culture Number 6685) and in the assay on Staphylococcus aureus (Culture Number 9213) was above 64 µg/mL throughout.
For `CC(C)(O/N=C(\C(=O)N[C@H]1CN(C(=O)NS(=O)(=O)N[C@@H]2CN(C(=O)c3cc(=O)c(O)c[nH]3)NC2=O)C1=O)c1csc(N)n1)C(=O)O` [60(d), 3(S)-3-[2-(2-Amino-4-thiazolyl)-Z-(2)(carboxyisopropyloxyimino)-acetamido]-1-[(3-hydroxy-4-pyridon-6-yl)-1-carbonyl-pyrazolidinone-4(R)-amino]-sulfonyl-aminocarbonyl-2-azetidinone], the MIC in the assay on Streptococcus pneumoniae was above 64 µg/mL; in the assay with Pseudomonas aeruginosa (Culture Number 231, 35° C.), 0.25 µg/mL (≈ 0.365 µM); in the assay with Pseudomonas aeruginosa (Culture Number 6676, 35° C.), 2 µg/mL (≈ 2.92 µM); with Pseudomonas aeruginosa (Culture Number 9191, 35° C.), 0.125 µg/mL (≈ 0.183 µM); with Klebsiella oxytoca (Culture Number 9383, 35° C.) it was 0.125 µg/mL (≈ 0.183 µM); in the assay on Klebsiella oxytoca (Culture Number 9384, 35° C.), 0.125 µg/mL (≈ 0.183 µM). Also, the MIC is 0.06 µg/mL (≈ 0.0876 µM) with Proteus vulgaris; 0.015 µg/mL (≈ 0.0219 µM) in the assay with Escherichia coli (Culture Number 9379, 35° C.); below 0.008 µg/mL in the assay on Escherichia coli (Culture Number 9380, 35° C.); 0.015 µg/mL (≈ 0.0219 µM) in the assay with Escherichia coli (Culture Number 9451, 35° C.); 4 µg/mL (≈ 5.84 µM) with Enterobacter cloacae (Culture Number 9381, 35° C.); 1 µg/mL (≈ 1.46 µM) with Enterobacter cloacae (Culture Number 9382, 35° C.). The MIC with Acinetobacter sp. was 1 µg/mL (≈ 1.46 µM); with Staphylococcus aureus (Culture Number 9218) it was 64 µg/mL (≈ 93.5 µM); in the assay on Streptococcus pyogenes, above 64 µg/mL; with Klebsiella pneumoniae, 0.5 µg/mL (≈ 0.73 µM); with Citrobacter freundii, 0.06 µg/mL (≈ 0.0876 µM); in the assay with Serratia marcescens, 0.03 µg/mL (≈ 0.0438 µM).
Regarding `C[C@H]1[C@H](NS(=O)(=O)NC(=O)N2C[C@H](NC(=O)/C(=N\OC(C)(C)C(=O)O)c3csc(N)n3)C2=O)C(=O)NN1C(=O)c1cc(=O)c(O)c[nH]1` [60(m), 3(S)-3-[2 (2-amino-4-thiazoyl)-Z-(2)(carboxyisopropyloxyimino)-acetamido]-1-[(3-hydroxy-4-pyridon-6-yl) 1-carbonyl-5(S)-methyl-pyrazolidinone-4(S)-amino]-sulfonylaminocarbonyl-2-azetidinone], the MIC in the assay on Streptococcus pneumoniae is above 64 µg/mL; in the assay on Pseudomonas aeruginosa (Culture Number 231, 35° C.), 0.125 µg/mL (≈ 0.179 µM); in the assay on Pseudomonas aeruginosa (Culture Number 6676, 35° C.), 0.5 µg/mL (≈ 0.716 µM); with Pseudomonas aeruginosa (Culture Number 9191, 35° C.) it was 0.125 µg/mL (≈ 0.179 µM); in the assay with Klebsiella oxytoca (Culture Number 9383, 35° C.), 0.25 µg/mL (≈ 0.358 µM); with Klebsiella oxytoca (Culture Number 9384, 35° C.), 0.06 µg/mL (≈ 0.0859 µM). In addition, the MIC was above 64 µg/mL in the assay on Streptococcus faecalis (Culture Number 9217); 2 µg/mL (≈ 2.86 µM) in [1]; 0.06 µg/mL (≈ 0.0859 µM) with Proteus vulgaris; 0.03 µg/mL (≈ 0.0429 µM) in the assay on Escherichia coli (Culture Number 9379, 35° C.); below 0.008 µg/mL in the assay with Escherichia coli (Culture Number 9380, 35° C.); below 0.008 µg/mL in the assay on Escherichia coli (Culture Number 9451, 35° C.). Also, the MIC in the assay on Escherichia coli (Culture Number 9952, 35° C.) was 0.015 µg/mL (≈ 0.0215 µM); in the assay on Enterobacter cloacae (Culture Number 9381, 35° C.), 8 µg/mL (≈ 11.5 µM); with Enterobacter cloacae (Culture Number 9382, 35° C.), 2 µg/mL (≈ 2.86 µM); in the assay with Staphylococcus aureus (Culture Number 3665), above 64 µg/mL; in the assay with Streptococcus pyogenes, above 64 µg/mL; with Klebsiella pneumoniae it was 0.5 µg/mL (≈ 0.716 µM). In addition, the MIC in the assay with Citrobacter freundii is 0.03 µg/mL (≈ 0.0429 µM); in the assay with Serratia marcescens it was 0.06 µg/mL (≈ 0.0859 µM). For the same compound, the “Minimum Inhibitory Concentration” value with Staphylococcus aureus (Culture Number 6685), in the assay on Staphylococcus aureus (Culture Number 9213) and in the assay on Staphylococcus aureus (Culture Number 9218) was above 64 µg/mL each time.
Turning to `C[C@H]1[C@@H](NS(=O)(=O)NC(=O)N2C[C@H](NC(=O)/C(=N\OC(C)(C)C(=O)O)c3csc(N)n3)C2=O)C(=O)NN1C(=O)c1cc(=O)c(O)c[nH]1` [60(p), 3(S)-3-[2-(2-amino-4-thiazoyl)-Z-(2)-(carboxyisopropyloxyimino)-acetamido]-1-[(3-hydroxy-4-pyridon-6-yl)-1-carbonyl-5(S)-methyl-pyrazolidinone-4(R)-amino]-sulfonylaminocarbonyl-2-azetidinone], the MIC in the assay with Streptococcus pneumoniae was above 64 µg/mL; with Pseudomonas aeruginosa (Culture Number 231, 35° C.), 0.125 µg/mL (≈ 0.179 µM); in the assay on Pseudomonas aeruginosa (Culture Number 6676, 35° C.) it was 0.25 µg/mL (≈ 0.358 µM); in the assay with Pseudomonas aeruginosa (Culture Number 9191, 35° C.), 0.06 µg/mL (≈ 0.0859 µM); in the assay with Klebsiella oxytoca (Culture Number 9383, 35° C.), 0.125 µg/mL (≈ 0.179 µM); in the assay with Klebsiella oxytoca (Culture Number 9384, 35° C.) it was 0.06 µg/mL (≈ 0.0859 µM). Further, the MIC in the assay on Streptococcus faecalis (Culture Number 9217) is above 64 µg/mL; in assay [1], 1 µg/mL (≈ 1.43 µM); in the assay on Proteus vulgaris, 0.06 µg/mL (≈ 0.0859 µM); in the assay on Escherichia coli (Culture Number 9379, 35° C.), 0.03 µg/mL (≈ 0.0429 µM); in the assay on Escherichia coli (Culture Number 9380, 35° C.) it was 0.015 µg/mL (≈ 0.0215 µM); in the assay with Escherichia coli (Culture Number 9451, 35° C.), 0.015 µg/mL (≈ 0.0215 µM). The MIC is 0.015 µg/mL (≈ 0.0215 µM) with Escherichia coli (Culture Number 9952, 35° C.); 8 µg/mL (≈ 11.5 µM) with Enterobacter cloacae (Culture Number 9381, 35° C.); 2 µg/mL (≈ 2.86 µM) in the assay on Enterobacter cloacae (Culture Number 9382, 35° C.); above 64 µg/mL in the assay with Staphylococcus aureus (Culture Number 3665); above 64 µg/mL in the assay with Streptococcus pyogenes; 0.5 µg/mL (≈ 0.716 µM) in the assay with Klebsiella pneumoniae. The MIC with Citrobacter freundii and with Serratia marcescens was 0.06 µg/mL (≈ 0.0859 µM) in each case. In addition, the “Minimum Inhibitory Concentration” value in the assay on Staphylococcus aureus (Culture Number 6685), in the assay with Staphylococcus aureus (Culture Number 9213) and in the assay with Staphylococcus aureus (Culture Number 9218) was above 64 µg/mL throughout.

The values above are taken from patent US5015737A, “Therapeutically useful beta-lactams” (The Upjohn Company, priority 1990, dated 1991).
